# Measured values from US7504425B2 (priority 2002, dated 2009).
# Target: Bacillus anthracis lethal factor (Bacillus anthracis, UniProt P15917)
# Experiment: biochemical
# Chain of Bacillus anthracis lethal factor (P15917 34-809 limits assumed): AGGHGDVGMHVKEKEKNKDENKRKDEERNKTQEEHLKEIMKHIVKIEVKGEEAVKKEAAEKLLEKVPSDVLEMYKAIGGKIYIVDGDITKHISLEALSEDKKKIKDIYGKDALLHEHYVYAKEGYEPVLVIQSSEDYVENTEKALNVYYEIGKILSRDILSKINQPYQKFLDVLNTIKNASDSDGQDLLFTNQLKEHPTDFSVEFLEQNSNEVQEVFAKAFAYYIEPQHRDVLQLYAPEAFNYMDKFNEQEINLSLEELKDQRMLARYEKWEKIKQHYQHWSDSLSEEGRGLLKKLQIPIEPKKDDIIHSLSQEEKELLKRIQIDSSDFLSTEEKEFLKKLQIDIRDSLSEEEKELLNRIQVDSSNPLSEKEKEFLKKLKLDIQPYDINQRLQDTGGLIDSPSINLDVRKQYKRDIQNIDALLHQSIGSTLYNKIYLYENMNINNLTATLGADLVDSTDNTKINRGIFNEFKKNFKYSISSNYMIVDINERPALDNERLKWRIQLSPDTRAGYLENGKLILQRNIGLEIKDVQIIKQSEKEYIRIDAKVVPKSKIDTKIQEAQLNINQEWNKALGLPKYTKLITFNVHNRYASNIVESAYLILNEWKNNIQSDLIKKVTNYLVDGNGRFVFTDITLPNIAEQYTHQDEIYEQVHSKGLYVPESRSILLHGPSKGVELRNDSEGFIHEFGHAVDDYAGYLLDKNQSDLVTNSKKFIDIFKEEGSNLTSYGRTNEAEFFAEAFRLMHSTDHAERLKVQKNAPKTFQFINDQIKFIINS
smiles,measurement,value
Cc1cc(S(=O)(=O)N[C@@H](C(=O)NO)C2CCOCC2)ccc1F,IC50,60 nM
